This is an account of results in PubChem BioAssay AID330 (DTP/NCI, 2004).

Where “and” joins values, the source holds several entries; their conditions need not be identical. Equal values may be shown once. Toxic doses and inconclusive results are not listed.

The assay deals with P388 leukemia ip, CD2F1 mice, survival T/C. Description: NCI In Vivo Anticancer Drug Screen. Data for tumor model P388 Leukemia (intraperitoneal) in CD2F1 (CDF1) mice. The settings on record: endpoint: median survival time, higher = longer survival. Put shortly:
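Mice carrying the transplanted tumor received test compound or vehicle. Survival was recorded in each group, and the value is the treated-group measurement divided by that of the vehicle-treated control group.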

The mark [1] stands for this setting: dose: 50.0 mg/kg/injection, schedule: Q01DX005 (ip), vehicle: saline with Tween-80.
Where [2] appears, read: dose: 100.0 mg/kg/injection, schedule: Q01DX005 (ip), vehicle: saline with Tween-80.
The mark [3] stands for this setting: dose: 200.0 mg/kg/injection, schedule: Q01DX005 (ip), vehicle: saline with Tween-80.
Where [4] appears, read: dose: 100.0 mg/kg/injection, schedule: Q04DX002 (ip), vehicle: saline with Tween-80.
Where [5] appears, read: dose: 200.0 mg/kg/injection, schedule: Q04DX002 (ip), vehicle: saline with Tween-80.
Where [6] appears, read: dose: 100.0 mg/kg/injection, schedule: Q01DX009 (ip), vehicle: Klucel (hydroxypropylcellulose) (HPC).
[7] abbreviates: dose: 200.0 mg/kg/injection, schedule: Q01DX009 (ip), vehicle: Klucel (hydroxypropylcellulose) (HPC).
The mark [8] stands for this setting: dose: 50.0 mg/kg/injection, schedule: Q01DX005 (ip), vehicle: Klucel (hydroxypropylcellulose) (HPC).
Setting [9] is: dose: 50.0 mg/kg/injection, schedule: Q01DX009 (ip), vehicle: saline.
Setting [10] is: dose: 100.0 mg/kg/injection, schedule: Q01DX009 (ip), vehicle: saline.
The mark [11] stands for this setting: dose: 60.0 mg/kg/injection, schedule: Q01DX005 (ip), vehicle: saline with Tween-80.
Where [12] appears, read: dose: 120.0 mg/kg/injection, schedule: Q01DX005 (ip), vehicle: saline with Tween-80.
The mark [13] stands for this setting: dose: 240.0 mg/kg/injection, schedule: Q01DX005 (ip), vehicle: saline with Tween-80.

In the case of `CSC(=S)n1nc(-c2cccs2)c(N=Nc2ccccc2)c1C(F)(F)F`, the T/C runs as follows: (dose: 7.5 mg/kg/injection, schedule: Q01DX005 (ip), vehicle: saline with Tween-80) 102 % of control; (dose: 15.0 mg/kg/injection, schedule: Q01DX005 (ip), vehicle: saline with Tween-80) 112 % of control; (dose: 30.0 mg/kg/injection, schedule: Q01DX005 (ip), vehicle: saline with Tween-80) 112 % of control.

Regarding `CN(C)CCCN1C[C@H]2CC[C@@](C)(C1)C2(C)C`, the T/C was 105 % of control under setting [1], 107 % of control under setting [2] and 105 % of control under setting [3].

Turning to `COc1ccc(N2C(=O)C(=O)C(C(C)=O)C2=O)cc1` (stereo unspecified), the T/C under setting [4] is 100 % of control and the T/C under setting [5] is 94 % of control.

`O=C(NC(=O)C(F)(F)C(F)(F)F)Nc1cccc(F)c1`: the T/C is 106 % of control under setting [6] and 100 % of control under setting [7].

In the case of `CC(C)(C)c1cc2c(O)c(c1)Cc1cc(C(C)(C)C)cc(c1O)Cc1cc(C(C)(C)C)cc(c1O)Cc1cc(C(C)(C)C)cc(c1O)Cc1cc(C(C)(C)C)cc(c1O)Cc1cc(C(C)(C)C)cc(c1O)C2`, the T/C reads like this: under setting [8], 99 % of control; (dose: 100.0 mg/kg/injection, schedule: Q01DX005 (ip), vehicle: Klucel (hydroxypropylcellulose) (HPC)) 92 % of control; (dose: 200.0 mg/kg/injection, schedule: Q01DX005 (ip), vehicle: Klucel (hydroxypropylcellulose) (HPC)) 92 % of control.

Regarding `CC(=O)NS(=O)(=O)c1ccc(N=Nc2c(O)n(-c3ccccc3)n(-c3ccccc3)c2=O)cc1`, the T/C reads like this: (dose: 50.0 mg/kg/injection, schedule: Q01DX009 (ip), vehicle: Klucel (hydroxypropylcellulose) (HPC)) 88 % of control; under setting [6], 101 % of control; under setting [7], 109 % of control.

As for `OCCSC(=S)Nc1ccc(Cl)c(Cl)c1`, the T/C was 96 % of control under setting [9] and 103 % of control under setting [10].

On to `COC(=O)/C=C/C(=O)NC(O)C(Cl)(Cl)Cl` (stereo unspecified), for which the T/C reads like this: under setting [1], 102 % of control; under setting [2], 107 % of control; under setting [3], 102 % of control.

As to `CN=Nc1c(O)[nH]c2ccc(C)cc12`, the T/C under setting [11] is 96 % of control, the T/C under setting [12] is 98 % of control and the T/C under setting [13] is 92 % of control.

For `O=C1NC(O)c2cccc([N+](=O)[O-])c2O1` (stereo unspecified), the T/C is, setting by setting: under setting [1], 100 % of control; under setting [2], 105 % of control; under setting [3], 110 % of control.

For `CC[As](CC)SCC1OC(OC(C)=O)C(OC(C)=O)C(OC(C)=O)C1OC(C)=O` (stereo unspecified), the T/C (dose: 50.0 mg/kg/injection, schedule: Q01DX009 (ip), vehicle: saline + alcohol) was 99 % of control; the T/C under setting [9] is 110 % of control; the T/C (dose: 100.0 mg/kg/injection, schedule: Q01DX009 (ip), vehicle: saline + alcohol) is 100 % of control; the T/C under setting [10] is 113 % of control; the T/C (dose: 200.0 mg/kg/injection, schedule: Q01DX009 (ip), vehicle: saline + alcohol) was 109 % of control.

For the compound `Cc1ccc(S(=O)(=O)F)c(Cl)c1`, the T/C was 95 % of control (dose: 100.0 mg/kg/injection, schedule: Q04DX003 (ip), vehicle: Klucel (hydroxypropylcellulose) (HPC)); 119 % of control (dose: 200.0 mg/kg/injection, schedule: Q04DX003 (ip), vehicle: Klucel (hydroxypropylcellulose) (HPC)); 103 % of control (dose: 400.0 mg/kg/injection, schedule: Q04DX003 (ip), vehicle: Klucel (hydroxypropylcellulose) (HPC)).

Turning to `O=C(O)Cc1cn2cccnc2n1`, the T/C is, setting by setting: (dose: 50.0 mg/kg/injection, schedule: Q04DX002 (ip), vehicle: saline with Tween-80) 115 % of control; under setting [4], 99 % of control; under setting [5], 96 % of control.

Take `CC[C@H]1C[C@H](Cc2ccccc2)CC[C@H]1N1CCCC1`: the T/C runs as follows: under setting [1], 101 % of control; under setting [2], 104 % of control.

In the case of `CC1(C)c2ccccc2C(=O)c2ccccc21`, the T/C under setting [1] was 103 % of control, the T/C under setting [2] is 100 % of control and the T/C under setting [3] was 103 % of control.

Take `C=CC1=NC(C)(C)CC(C)O1` (stereo unspecified): the T/C runs as follows: (dose: 1.56 mg/kg/injection, schedule: Q01DX009 (ip), vehicle: water) 104 % of control; (dose: 3.13 mg/kg/injection, schedule: Q01DX009 (ip), vehicle: water) 107 % of control; (dose: 6.25 mg/kg/injection, schedule: Q01DX009 (ip), vehicle: water) 116 % of control; (dose: 12.5 mg/kg/injection, schedule: Q01DX009 (ip), vehicle: water) 109 % of control.

On to `CN(CC[n+]1cccc(C(N)=O)c1)N=O`, for which the T/C runs as follows: (dose: 100.0 mg/kg/injection, schedule: Q01DX001 (ip), vehicle: saline) 108 % of control; (dose: 200.0 mg/kg/injection, schedule: Q01DX001 (ip), vehicle: saline) 100 % of control; (dose: 400.0 mg/kg/injection, schedule: Q01DX001 (ip), vehicle: saline) 107 % of control.

In the case of `CNC(=O)c1cccc2c(Nc3ccc(NS(C)(=O)=O)cc3OC)c3cccc(C)c3nc12`, the T/C runs as follows: (dose: 1.56 mg/kg/injection, schedule: Q01DX005 (ip), vehicle: water) 163 % of control; (dose: 3.0 mg/kg/injection, schedule: Q01DX005 (ip), vehicle: water) 175 % of control; (dose: 3.12 mg/kg/injection, schedule: Q01DX005 (ip), vehicle: water) 169 % of control; (dose: 6.25 mg/kg/injection, schedule: Q01DX005 (ip), vehicle: water) 218 % of control; (dose: 12.5 mg/kg/injection, schedule: Q01DX005 (oral), vehicle: water) 151 % of control.

For the compound `C#CC(C)C(C(C)=O)C(=O)c1ccccc1.[C-]#[O+].[C-]#[O+].[C-]#[O+].[C-]#[O+].[C-]#[O+].[C-]#[O+].[Co].[Co]` (stereo unspecified), the T/C by setting is: (dose: 12.5 mg/kg/injection, schedule: Q01DX005 (ip), vehicle: Klucel (hydroxypropylcellulose) (HPC)) 108 % of control; (dose: 25.0 mg/kg/injection, schedule: Q01DX005 (ip), vehicle: Klucel (hydroxypropylcellulose) (HPC)) 101 % of control; under setting [8], 104 % of control and 95 % of control.

Turning to `O=C(Nc1ccccc1C(=O)Nc1nccs1)c1ccccc1`, the T/C was 86 % of control under setting [11], 93 % of control under setting [12] and 98 % of control under setting [13].

On to `Cc1cc(NN)nc2n[nH]c(N)c12`, for which the T/C is, setting by setting: (dose: 12.5 mg/kg/injection, schedule: Q01DX005 (ip), vehicle: saline with Tween-80) 105 % of control; (dose: 25.0 mg/kg/injection, schedule: Q01DX005 (ip), vehicle: saline with Tween-80) 97 % of control; under setting [1], 102 % of control and 112 % of control.

With `CCOC(=O)COc1cc2c(cc1C(C)c1ccc(OC)c(OC)c1)OCO2` (stereo unspecified), the T/C was 90 % of control (dose: 50.0 mg/kg/injection, schedule: Q01DX005 (ip), vehicle: distilled water + Tween-80); 91 % of control (dose: 100.0 mg/kg/injection, schedule: Q01DX005 (ip), vehicle: distilled water + Tween-80); 86 % of control (dose: 200.0 mg/kg/injection, schedule: Q01DX005 (ip), vehicle: distilled water + Tween-80).

`Nc1nc(-c2cccc([N+](=O)[O-])c2)cc(-c2cc(-c3cccc([N+](=O)[O-])c3)nc(N)n2)n1`: the T/C is 94 % of control (dose: 60.0 mg/kg/injection, schedule: Q01DX005 (ip), vehicle: Klucel (hydroxypropylcellulose) (HPC)); 90 % of control (dose: 120.0 mg/kg/injection, schedule: Q01DX005 (ip), vehicle: Klucel (hydroxypropylcellulose) (HPC)); 96 % of control (dose: 240.0 mg/kg/injection, schedule: Q01DX005 (ip), vehicle: Klucel (hydroxypropylcellulose) (HPC)).

Regarding `Nc1nc(Nc2ccccc2)nc(-c2ccccc2)n1`, the T/C runs as follows: under setting [1], 100 % of control; under setting [2], 86 % of control.

As for `N=C(N)c1ccc(-c2ccc(-c3ccc(C(=N)N)cc3)s2)cc1`, the T/C runs as follows: (dose: 12.5 mg/kg/injection, schedule: Q04DX003 (ip), vehicle: suspension in saline) 106 % of control; (dose: 25.0 mg/kg/injection, schedule: Q04DX003 (ip), vehicle: suspension in saline) 120 % of control; (dose: 100.0 mg/kg/injection, schedule: Q04DX003 (ip), vehicle: suspension in saline) 169 % of control.

Consider `O=C1N=C2SCCN2C(=O)C1Nc1ccc(Cl)cc1` (stereo unspecified), for which the T/C by setting is: under setting [4], 99 % of control; under setting [5], 100 % of control; (dose: 400.0 mg/kg/injection, schedule: Q04DX002 (ip), vehicle: saline with Tween-80) 98 % of control.

For the compound `COC1(OC)C=NNc2nccn21`, the T/C by setting is: under setting [11], 100 % of control; under setting [12], 96 % of control; under setting [13], 104 % of control.
